Measurements as given in PubChem BioAssay AID1963967 (Molecular Pharmacology Branch, DTP, NCI, 2024).
Several values for one entry are separate records, joined by “and”; a condition that tells them apart may be missing. Identical values can stand only once.

Test system: 855422-203-R-J1-PDC spheroids with HUVEC/MSC, viability
Assay: Anticancer human tumor 855422-203-R-J1-PDC patient-derived bladder carcinoma cell line growth inhibition [PI3K]
Conditions: for viability, T/C: stronger effect = lower value
Summary of the method: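 High-throughput combination screen: PI3K inhibitors crossed with targeted small molecules on complex spheroids of tumor cells, HUVEC and MSCs at 37 degrees C, 5% CO2. Top concentration was at or near clinical Cmax (otherwise 10 microM), with half-log decrements.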
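Further: agents incubated with spheroids for one week before read-out.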
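Wherever viability, T/C is given: 100% = DMSO vehicle-treated control wells.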

Cn1nccc1Nc1nccc(-c2ccn(C(CO)c3ccc(Cl)c(F)c3)c(=O)c2)n1 (stereo unspecified) + COc1c(OCCCN2CCOCC2)ccc2c3n(c(=NC(=O)c4cnc(N)nc4)nc12)CCN3
IC50 (curve of first compound, second compound 0.00316 µM): 7090 nM
IC50 (curve of first compound, second compound 0.01 µM): 5010 nM
IC50 (curve of first compound, second compound 0.0316 µM): 1040 nM
IC50 (curve of first compound, second compound 0.1 µM): < 31.6 nM
IC50 (curve of first compound, second compound 0.316 µM): < 31.6 nM
IC50 (curve of first compound, second compound 1 µM): < 31.6 nM
viability, T/C (second compound 0.00316 µM, first compound 0.0316 µM): 94.4%
viability, T/C (second compound 0.00316 µM, first compound 0.1 µM): 91.3%
viability, T/C (second compound 0.00316 µM, first compound 0.316 µM): 106%
viability, T/C (second compound 0.00316 µM, first compound 1 µM): 93.5%
viability, T/C (second compound 0.00316 µM, first compound 3.16 µM): 83.7%
viability, T/C (second compound 0.00316 µM, first compound 10 µM): 35.7%
viability, T/C (second compound 0.01 µM, first compound 0.0316 µM): 88.8%
viability, T/C (second compound 0.01 µM, first compound 0.1 µM): 91.7%
viability, T/C (second compound 0.01 µM, first compound 0.316 µM): 83.3%
viability, T/C (second compound 0.01 µM, first compound 1 µM): 94.7%
viability, T/C (second compound 0.01 µM, first compound 3.16 µM): 67%
viability, T/C (second compound 0.01 µM, first compound 10 µM): 24.3%
viability, T/C (second compound 0.0316 µM, first compound 0.0316 µM): 61%
viability, T/C (second compound 0.0316 µM, first compound 0.1 µM): 59.8%
viability, T/C (second compound 0.0316 µM, first compound 0.316 µM): 53.6%
viability, T/C (second compound 0.0316 µM, first compound 1 µM): 51.6%
viability, T/C (second compound 0.0316 µM, first compound 3.16 µM): 38.1%
viability, T/C (second compound 0.0316 µM, first compound 10 µM): 12.8%
viability, T/C (second compound 0.1 µM, first compound 0.0316 µM): 25.1%
viability, T/C (second compound 0.1 µM, first compound 0.1 µM): 22.6%
viability, T/C (second compound 0.1 µM, first compound 0.316 µM): 22.3%
viability, T/C (second compound 0.1 µM, first compound 1 µM): 17.9%
viability, T/C (second compound 0.1 µM, first compound 3.16 µM): 10.5%
viability, T/C (second compound 0.1 µM, first compound 10 µM): 6.36%
viability, T/C (second compound 0.316 µM, first compound 0.0316 µM): 7.7%
viability, T/C (second compound 0.316 µM, first compound 0.1 µM): 8.43%
viability, T/C (second compound 0.316 µM, first compound 0.316 µM): 5.39%
viability, T/C (second compound 0.316 µM, first compound 1 µM): 3.86%
viability, T/C (second compound 0.316 µM, first compound 3.16 µM): 3.44%
viability, T/C (second compound 0.316 µM, first compound 10 µM): 1.9%
viability, T/C (second compound 1 µM, first compound 0.0316 µM): 2.72%
viability, T/C (second compound 1 µM, first compound 0.1 µM): 2.95%
viability, T/C (second compound 1 µM, first compound 0.316 µM): 1.79%
viability, T/C (second compound 1 µM, first compound 1 µM): 2.14%
viability, T/C (second compound 1 µM, first compound 3.16 µM): 0.55%
viability, T/C (second compound 1 µM, first compound 10 µM): 0.89%

CC1(C)CCC(Nc2ncc(C(F)(F)F)c(-c3c[nH]c4c(P(C)(C)=O)c(C#N)ccc34)n2)CN1 (stereo unspecified)
viability, T/C (compound 0.0316 µM): 29.6% [middle of 4 runs]
viability, T/C (compound 0.1 µM): 25% [middle of 4 runs]
viability, T/C (compound 0.316 µM): 27.7% [middle of 4 runs]
viability, T/C (compound 1 µM): 30.7% [middle of 4 runs]
viability, T/C (compound 3.16 µM): 28.9% [middle of 4 runs]
viability, T/C (compound 10 µM): 5.48% [middle of 4 runs]
IC50 (curve of compound): < 31.6 nM

CCN1CCN(Cc2ccc(Nc3ncc(F)c(-c4cc(F)c5nc(C)n(C(C)C)c5c4)n3)nc2)CC1
viability, T/C (compound 0.00316 µM): 111% [middle of 4 runs]
viability, T/C (compound 0.0316 µM): 107% [middle of 4 runs]
viability, T/C (compound 0.1 µM): 83.3% [middle of 4 runs]
viability, T/C (compound 0.316 µM): 71.9% and 69.7% (2×) and 83.9%
viability, T/C (compound 1 µM): 60.2% [middle of 4 runs]
IC50 (curve of compound): > 1000 nM

C[C@@H](NC(=O)c1ncnc(N)c1Cl)c1ncc(C(=O)Nc2cc(C(F)(F)F)c(Cl)cn2)s1
viability, T/C (compound 0.0316 µM): 107% [middle of 4 runs]
viability, T/C (compound 0.1 µM): 99.5% [middle of 4 runs]
viability, T/C (compound 0.316 µM): 118% [middle of 4 runs]
viability, T/C (compound 3.16 µM): 122% [middle of 4 runs]
viability, T/C (compound 10 µM): 120% [middle of 4 runs]
IC50 (curve of compound): > 10000 nM
